Data: article PMC5333395, “Assessing histone demethylase inhibitors in cells: lessons learned” (Epigenetics & Chromatin, 2017)
Where two headings read alike, the source gives them in different places.

What was measured:
HeLa cells [1] = assay: Hoechst 33342/Yo-Pro 3/Annexin triple staining, live cell death pattern analysis; type: cell-based
Method: Cells exposed to the inhibitors for 24 h were stained with Hoechst 33342 (1 µM), Yo-Pro 3 (1 µM) and Annexin V (0.3 μL per well) for 1 h. Cellular fluorescence was measured using the IN Cell 6000 (GE) using the following set-up parameters: bright-field transmitted light at 50% for 15 ms; Hoechst 33342 was excited by 35-ms exposure(Ex 360–400 nm/Em 410–480 nm), Yo-Pro 3 by 35-ms exposure(Ex 560–580 nm/Em 650–760 nm) and Annexin V (Alexa 488) by 45-ms exposure(Ex 460–490 nm/Em 500–550 nm). All the generated data were analysed using the IN Cell Analyser software, and three categories were distinguished: healthy cells, apoptosis and necrosis—calculated as percentage of each class for every concentration used.

H3K4me3 mark = assay: IF assay of histone mark in HeLa cells treated with cytotoxic agents
H3K27me3 mark = assay: as above
H3K9me2 mark = assay: as above
H3K36me2 mark = assay: as above
HeLa cells [2] = assay: Cell number in the high-content screen (DAPI staining) as measure of toxicity; settings: concentrations used in the IF assays
Excerpt: (§2) Immunofluorescence images of 20 fields (if not indicated otherwise) were captured through a 20× objective on a PerkinElmer Operetta or the GE IN Cell 6000 using the appropriate filters and light sources for exciting DAPI, Alexafluor 488, and Alexafluor 568 or Alexafluor 647. […] From the DAPI channel, a binary mask was created to exclude individual nuclei smaller than 100 µm^2 and those overlapping the edge of the field.

HeLa cells [3] = test system: HeLa cells
Excerpt: as §2

KDM5B [4] = biological target: T1, KDM5B (Homo sapiens, UniProt Q9UGL1); assay: High-content immunofluorescence (IF) assay, overexpressed full-length FLAG-tagged KDM in HeLa cells; type: cell-based; design: transiently transfecting the full-length FLAG-tagged demethylase (WT) into cells; expressed in transfected cells; host or cells: HeLa; settings: for Effect on H3K4me3 mark in KDM5B IF assay, in words: HeLa cells transfected with KDM5B; for EC50: HeLa cells overexpressing WT KDM5B, H3K4me3 mark, 24 h, read-out: KDM5B, in cells, EC50 by IF assay (head: IC50)
T1 sequence (Q9UGL1 whole entry): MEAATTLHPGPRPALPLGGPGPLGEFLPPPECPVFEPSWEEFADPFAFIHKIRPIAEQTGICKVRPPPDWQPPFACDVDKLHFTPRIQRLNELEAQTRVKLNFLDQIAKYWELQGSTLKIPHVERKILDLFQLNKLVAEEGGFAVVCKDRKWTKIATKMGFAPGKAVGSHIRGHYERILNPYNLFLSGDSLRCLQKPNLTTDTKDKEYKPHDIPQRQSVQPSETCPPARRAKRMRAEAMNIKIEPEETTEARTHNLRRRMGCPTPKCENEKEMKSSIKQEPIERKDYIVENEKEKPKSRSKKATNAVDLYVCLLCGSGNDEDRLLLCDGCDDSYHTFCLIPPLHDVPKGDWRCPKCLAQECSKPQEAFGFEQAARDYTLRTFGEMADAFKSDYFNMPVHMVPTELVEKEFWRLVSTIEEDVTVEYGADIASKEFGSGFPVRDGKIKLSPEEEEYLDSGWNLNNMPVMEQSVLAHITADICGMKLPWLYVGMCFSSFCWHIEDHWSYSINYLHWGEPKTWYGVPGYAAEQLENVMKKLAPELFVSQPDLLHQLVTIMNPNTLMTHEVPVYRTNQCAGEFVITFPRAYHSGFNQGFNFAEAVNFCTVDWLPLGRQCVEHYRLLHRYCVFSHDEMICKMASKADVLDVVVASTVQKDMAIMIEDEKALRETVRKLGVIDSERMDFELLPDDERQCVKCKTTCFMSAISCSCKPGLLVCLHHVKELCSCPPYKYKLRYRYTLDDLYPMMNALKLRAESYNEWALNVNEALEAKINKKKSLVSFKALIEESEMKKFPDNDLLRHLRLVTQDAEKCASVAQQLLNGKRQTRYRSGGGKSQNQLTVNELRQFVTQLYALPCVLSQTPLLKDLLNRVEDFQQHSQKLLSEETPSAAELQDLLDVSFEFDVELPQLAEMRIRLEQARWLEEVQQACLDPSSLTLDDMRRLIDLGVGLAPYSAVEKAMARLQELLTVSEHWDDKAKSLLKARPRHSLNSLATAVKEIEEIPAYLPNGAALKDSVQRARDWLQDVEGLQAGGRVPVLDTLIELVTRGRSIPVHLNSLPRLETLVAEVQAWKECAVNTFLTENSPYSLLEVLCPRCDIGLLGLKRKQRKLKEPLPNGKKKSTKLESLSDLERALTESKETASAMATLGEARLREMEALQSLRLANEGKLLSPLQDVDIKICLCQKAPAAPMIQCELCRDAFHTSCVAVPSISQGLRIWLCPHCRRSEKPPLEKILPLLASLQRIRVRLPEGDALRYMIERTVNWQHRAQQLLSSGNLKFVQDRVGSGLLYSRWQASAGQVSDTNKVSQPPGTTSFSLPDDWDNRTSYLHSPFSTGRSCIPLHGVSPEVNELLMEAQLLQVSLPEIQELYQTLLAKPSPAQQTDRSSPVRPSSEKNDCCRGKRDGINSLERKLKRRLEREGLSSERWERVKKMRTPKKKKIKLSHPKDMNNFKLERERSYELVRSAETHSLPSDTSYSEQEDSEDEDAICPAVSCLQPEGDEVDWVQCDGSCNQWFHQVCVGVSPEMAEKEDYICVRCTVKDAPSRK
Method: HeLa cells (ATCC) were cultured at 37 °C and 5% CO2 in Minimal Essential Media—Eagle (Sigma-Aldrich, UK) supplemented with 10% heat-inactivated foetal calf serum (FCS) (Gibco, UK), and 1% L-glutaMAX (Gibco, UK) in T75 flasks (Sarstedt, UK) and passaged regularly with TrypLE (Life Technologies, UK) before cells reached confluence. On day 0, 7000 cells per well were plated on a 96-well clear bottom CellCarrier plate (PerkinElmer, UK). The next day the cells were transfected with Lipofectamine 3000 (ThermoFisher Scientific, UK) following the manufacturer’s instructions. Briefly, 0.1 µg of plasmid DNA (encoding for the respective demethylase) and 0.15 µL of Lipofectamine 3000 were diluted in separate tubes containing 5 µL OptiMEM. 0.15 µL of P3000 was added to the tube with the DNA. The two solutions were then mixed gently and allowed to incubate for 5 min at room temperature. Next, the DNA-lipid complex was added to the cells for 4 h at 37 °C and 5% CO2.
Compound dilutions were made in a 96-well PCR plate (Starlab, UK). The culture medium was supplemented with 0.4% DMSO so that the solvent concentration was maintained throughout. Compounds were serially diluted at a 1:2 or 1:3 dilution ratio. Next, the cell culture plate was removed from the incubator and the medium was gently aspirated and replaced with the fresh medium containing diluted compounds.
Then cells were rinsed once with PBS and blocked for 30 min at room temperature using 3% v/v foetal calf serum diluted in PBS.

KDM5B [5] = biological target: T1, KDM5B; design: method as in PMID 26741168; settings: AlphaScreen; in vitro biochemical profiling previously reported; cited from earlier work
KDM3A = biological target: T2, KDM3A (Homo sapiens, UniProt Q9Y4C1); assay: AlphaScreen in vitro demethylase assay; type: biochemical; settings: IC50 ± SD (number of replicates)
T2 sequence (Q9Y4C1 1-1321): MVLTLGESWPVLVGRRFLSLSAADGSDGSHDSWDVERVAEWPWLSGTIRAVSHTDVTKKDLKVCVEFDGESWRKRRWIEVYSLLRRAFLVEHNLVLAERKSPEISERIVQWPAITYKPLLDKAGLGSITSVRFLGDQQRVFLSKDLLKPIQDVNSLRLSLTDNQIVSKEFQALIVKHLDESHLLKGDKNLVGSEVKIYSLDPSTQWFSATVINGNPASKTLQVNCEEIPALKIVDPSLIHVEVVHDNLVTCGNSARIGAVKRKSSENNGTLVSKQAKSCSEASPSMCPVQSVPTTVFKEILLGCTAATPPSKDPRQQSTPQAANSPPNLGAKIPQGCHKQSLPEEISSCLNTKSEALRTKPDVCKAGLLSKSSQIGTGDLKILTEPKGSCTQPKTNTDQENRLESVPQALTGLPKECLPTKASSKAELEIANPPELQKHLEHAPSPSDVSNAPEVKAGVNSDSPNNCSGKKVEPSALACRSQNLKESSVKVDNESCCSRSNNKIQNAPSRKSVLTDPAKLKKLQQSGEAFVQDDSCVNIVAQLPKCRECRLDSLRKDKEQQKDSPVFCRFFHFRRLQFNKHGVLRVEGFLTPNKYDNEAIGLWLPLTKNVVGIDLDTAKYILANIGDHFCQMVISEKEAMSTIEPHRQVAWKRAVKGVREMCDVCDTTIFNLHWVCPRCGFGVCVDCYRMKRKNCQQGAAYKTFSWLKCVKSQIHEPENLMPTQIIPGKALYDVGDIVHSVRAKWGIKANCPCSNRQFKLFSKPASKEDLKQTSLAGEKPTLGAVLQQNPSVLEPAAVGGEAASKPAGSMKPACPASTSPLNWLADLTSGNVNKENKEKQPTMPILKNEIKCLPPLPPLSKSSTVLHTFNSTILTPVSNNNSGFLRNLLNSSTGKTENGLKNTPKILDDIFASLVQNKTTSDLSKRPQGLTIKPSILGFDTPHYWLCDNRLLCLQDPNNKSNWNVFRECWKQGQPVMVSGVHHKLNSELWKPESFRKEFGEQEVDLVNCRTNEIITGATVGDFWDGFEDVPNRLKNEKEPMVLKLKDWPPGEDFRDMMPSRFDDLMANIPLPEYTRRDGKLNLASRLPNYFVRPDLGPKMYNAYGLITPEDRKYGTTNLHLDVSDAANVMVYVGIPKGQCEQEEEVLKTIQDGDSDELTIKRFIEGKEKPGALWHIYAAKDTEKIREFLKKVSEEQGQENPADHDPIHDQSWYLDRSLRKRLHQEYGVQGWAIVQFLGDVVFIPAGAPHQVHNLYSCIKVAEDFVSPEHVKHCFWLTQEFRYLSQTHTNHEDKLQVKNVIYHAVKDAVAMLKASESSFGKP
Method: (§1) IC50 values were determined as previously described. The following amendments were made to the protocol for carrying out 2-OG competition assays.

KDM5B [6] = biological target: T1, KDM5B; assay: AlphaScreen in vitro demethylase assay; type: biochemical
Method: as §1

KDM5C = KDM5C (Homo sapiens, UniProt P41229); assay: AlphaScreen in vitro demethylase assay; type: biochemical; settings: IC50 ± SD (number of replicates)
Sequence of KDM5C (P41229 whole entry): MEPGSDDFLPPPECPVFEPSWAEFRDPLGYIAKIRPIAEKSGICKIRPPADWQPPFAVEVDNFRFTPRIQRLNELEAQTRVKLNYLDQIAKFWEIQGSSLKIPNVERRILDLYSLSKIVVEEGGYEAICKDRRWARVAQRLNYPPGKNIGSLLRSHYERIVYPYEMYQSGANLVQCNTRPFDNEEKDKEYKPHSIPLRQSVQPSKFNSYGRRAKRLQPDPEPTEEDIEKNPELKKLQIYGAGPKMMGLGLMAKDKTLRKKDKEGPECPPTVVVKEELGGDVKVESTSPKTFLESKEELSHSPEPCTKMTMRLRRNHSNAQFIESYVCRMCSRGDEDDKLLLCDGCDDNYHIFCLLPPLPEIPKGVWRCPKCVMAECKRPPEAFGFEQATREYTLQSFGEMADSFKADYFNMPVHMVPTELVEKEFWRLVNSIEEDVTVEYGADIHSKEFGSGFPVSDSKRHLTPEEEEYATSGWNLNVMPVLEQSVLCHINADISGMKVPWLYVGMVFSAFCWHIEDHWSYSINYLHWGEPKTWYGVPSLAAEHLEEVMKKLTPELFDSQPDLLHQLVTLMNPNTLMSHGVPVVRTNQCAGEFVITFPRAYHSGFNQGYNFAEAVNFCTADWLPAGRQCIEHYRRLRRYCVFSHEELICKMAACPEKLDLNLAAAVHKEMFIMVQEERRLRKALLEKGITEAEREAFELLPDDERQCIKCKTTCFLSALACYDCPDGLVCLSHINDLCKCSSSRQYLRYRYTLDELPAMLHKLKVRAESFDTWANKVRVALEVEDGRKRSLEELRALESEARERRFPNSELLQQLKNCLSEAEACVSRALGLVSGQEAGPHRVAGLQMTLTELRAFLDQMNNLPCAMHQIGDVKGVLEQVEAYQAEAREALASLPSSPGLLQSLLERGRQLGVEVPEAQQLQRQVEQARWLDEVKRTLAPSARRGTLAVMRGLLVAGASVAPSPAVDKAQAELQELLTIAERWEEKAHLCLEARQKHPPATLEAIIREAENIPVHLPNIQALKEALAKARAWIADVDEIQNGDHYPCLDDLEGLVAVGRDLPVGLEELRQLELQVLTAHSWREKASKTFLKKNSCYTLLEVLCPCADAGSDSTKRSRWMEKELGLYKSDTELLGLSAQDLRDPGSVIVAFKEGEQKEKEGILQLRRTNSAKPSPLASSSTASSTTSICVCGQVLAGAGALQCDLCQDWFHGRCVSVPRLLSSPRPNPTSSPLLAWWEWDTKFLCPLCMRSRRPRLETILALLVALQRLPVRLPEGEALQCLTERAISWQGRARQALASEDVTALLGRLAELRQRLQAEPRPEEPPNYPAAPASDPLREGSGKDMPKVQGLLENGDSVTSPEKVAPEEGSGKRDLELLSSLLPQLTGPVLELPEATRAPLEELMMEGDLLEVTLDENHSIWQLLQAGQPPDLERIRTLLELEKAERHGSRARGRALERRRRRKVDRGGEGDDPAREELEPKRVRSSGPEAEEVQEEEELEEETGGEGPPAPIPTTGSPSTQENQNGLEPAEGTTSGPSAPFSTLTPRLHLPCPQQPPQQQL
Method: as §1

KDM4C = biological target: T3, KDM4C (Homo sapiens, UniProt Q9H3R0); assay: AlphaScreen in vitro demethylase assay; type: biochemical; settings: in vitro KDM assay, Table S3; * likely false positive due to colour quenching; read-out: KDM4C IC50
T3 sequence (Q9H3R0 1-1056): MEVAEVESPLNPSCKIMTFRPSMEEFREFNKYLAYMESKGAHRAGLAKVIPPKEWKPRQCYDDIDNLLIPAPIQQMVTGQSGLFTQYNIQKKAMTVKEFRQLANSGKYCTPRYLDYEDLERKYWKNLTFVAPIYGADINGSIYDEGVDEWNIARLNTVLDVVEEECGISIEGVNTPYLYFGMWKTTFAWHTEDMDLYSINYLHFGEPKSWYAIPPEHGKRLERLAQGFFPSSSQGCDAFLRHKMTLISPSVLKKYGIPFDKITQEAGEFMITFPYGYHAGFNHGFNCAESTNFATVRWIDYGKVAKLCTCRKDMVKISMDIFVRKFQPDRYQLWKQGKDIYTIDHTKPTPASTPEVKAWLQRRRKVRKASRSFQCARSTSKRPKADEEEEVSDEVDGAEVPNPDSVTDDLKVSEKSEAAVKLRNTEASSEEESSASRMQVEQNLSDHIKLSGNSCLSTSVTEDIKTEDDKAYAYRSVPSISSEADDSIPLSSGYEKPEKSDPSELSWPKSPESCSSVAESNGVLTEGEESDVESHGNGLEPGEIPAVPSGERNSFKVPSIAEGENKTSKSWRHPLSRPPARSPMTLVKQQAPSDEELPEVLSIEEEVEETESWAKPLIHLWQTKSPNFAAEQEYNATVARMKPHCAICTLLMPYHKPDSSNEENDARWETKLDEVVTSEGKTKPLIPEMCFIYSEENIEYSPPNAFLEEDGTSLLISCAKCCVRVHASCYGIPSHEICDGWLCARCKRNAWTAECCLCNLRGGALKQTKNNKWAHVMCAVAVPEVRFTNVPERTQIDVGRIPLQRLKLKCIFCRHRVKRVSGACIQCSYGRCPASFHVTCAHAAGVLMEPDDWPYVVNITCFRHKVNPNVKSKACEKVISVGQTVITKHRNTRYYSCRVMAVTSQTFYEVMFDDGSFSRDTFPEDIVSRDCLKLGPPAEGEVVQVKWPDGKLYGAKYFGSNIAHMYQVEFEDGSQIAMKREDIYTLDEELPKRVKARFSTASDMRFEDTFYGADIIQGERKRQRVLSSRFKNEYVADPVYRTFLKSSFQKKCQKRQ
Method: as §1

KDM6B = KDM6B (Homo sapiens, UniProt O15054); assay: AlphaScreen in vitro demethylase assay; type: biochemical; settings: in vitro KDM assay, Table S3; * likely false positive due to colour quenching; read-out: KDM6B IC50
Sequence of KDM6B (O15054 whole entry): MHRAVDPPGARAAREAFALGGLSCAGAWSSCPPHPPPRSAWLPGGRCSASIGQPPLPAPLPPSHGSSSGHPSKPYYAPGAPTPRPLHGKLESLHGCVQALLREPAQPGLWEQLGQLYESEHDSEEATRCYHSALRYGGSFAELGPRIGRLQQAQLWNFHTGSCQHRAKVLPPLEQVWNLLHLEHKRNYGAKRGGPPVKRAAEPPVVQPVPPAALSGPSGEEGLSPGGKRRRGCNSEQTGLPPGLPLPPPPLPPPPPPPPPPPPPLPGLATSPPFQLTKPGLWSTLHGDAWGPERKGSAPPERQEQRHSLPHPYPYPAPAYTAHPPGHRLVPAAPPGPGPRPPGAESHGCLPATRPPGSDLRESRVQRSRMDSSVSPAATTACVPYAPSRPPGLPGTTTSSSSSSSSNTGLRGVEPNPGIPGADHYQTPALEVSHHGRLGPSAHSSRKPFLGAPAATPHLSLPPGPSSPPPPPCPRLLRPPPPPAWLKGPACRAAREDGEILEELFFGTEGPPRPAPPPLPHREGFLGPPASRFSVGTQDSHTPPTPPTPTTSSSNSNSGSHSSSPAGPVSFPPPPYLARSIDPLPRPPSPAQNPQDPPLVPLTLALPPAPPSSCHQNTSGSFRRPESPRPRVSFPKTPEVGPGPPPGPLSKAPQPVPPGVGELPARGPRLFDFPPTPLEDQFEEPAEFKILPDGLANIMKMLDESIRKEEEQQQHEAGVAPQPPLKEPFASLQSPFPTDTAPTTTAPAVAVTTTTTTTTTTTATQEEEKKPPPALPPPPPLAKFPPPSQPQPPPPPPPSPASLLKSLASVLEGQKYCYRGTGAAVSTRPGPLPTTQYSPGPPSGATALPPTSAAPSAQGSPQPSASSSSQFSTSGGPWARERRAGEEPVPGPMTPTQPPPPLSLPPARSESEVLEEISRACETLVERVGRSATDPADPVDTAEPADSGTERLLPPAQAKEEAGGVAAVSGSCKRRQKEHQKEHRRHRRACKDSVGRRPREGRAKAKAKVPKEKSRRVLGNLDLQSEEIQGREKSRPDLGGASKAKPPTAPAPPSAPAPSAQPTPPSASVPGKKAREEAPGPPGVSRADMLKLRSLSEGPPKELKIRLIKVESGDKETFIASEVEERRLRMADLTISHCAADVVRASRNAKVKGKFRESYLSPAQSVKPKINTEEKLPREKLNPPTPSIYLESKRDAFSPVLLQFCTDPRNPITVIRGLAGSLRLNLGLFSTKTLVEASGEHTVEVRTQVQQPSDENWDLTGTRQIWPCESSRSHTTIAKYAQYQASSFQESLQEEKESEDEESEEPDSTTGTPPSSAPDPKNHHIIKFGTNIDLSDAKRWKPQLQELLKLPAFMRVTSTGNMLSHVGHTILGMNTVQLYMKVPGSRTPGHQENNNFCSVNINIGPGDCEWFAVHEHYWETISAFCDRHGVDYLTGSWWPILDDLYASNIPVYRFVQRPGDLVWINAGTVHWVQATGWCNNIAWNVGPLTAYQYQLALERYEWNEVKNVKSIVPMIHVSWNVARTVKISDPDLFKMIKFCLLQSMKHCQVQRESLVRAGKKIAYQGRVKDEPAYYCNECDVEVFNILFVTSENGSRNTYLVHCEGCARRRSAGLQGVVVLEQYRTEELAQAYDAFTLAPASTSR
Method: as §1

[7] = HeLa cells, 24 h, dose-dependent
[8] = in vitro KDM assay, Table S3, * likely false positive due to colour quenching, read-out: KDM5B IC50

COc1cccc2c1C(=O)c1c(O)c3c(c(O)c1C2=O)C[C@@](O)(C(=O)CO)C[C@@H]3O[C@H]1C[C@H](N)[C@H](O)[C@H](C)O1 [Doxorubicin, doxorubicin]
Cell death in triple staining (healthy, apoptotic, necrotic), in words (HeLa cells [1]): predominant apoptotic staining
Effect on H3K4me3 levels, in words (H3K4me3 mark): no effect on this mark
Effect on H3K27me3 mark, in words (H3K27me3 mark): profound effect
Effect on H3K9me2 levels, in words (H3K9me2 mark): some increase
Effect on H3K36me2 levels, in words (H3K36me2 mark): only marginally affected
Toxicity as measured by cell count (number of cells, DAPI staining) (HeLa cells [2]): induced cell death

CCOC(=O)CCNc1cc(N2CCc3ccccc3CC2)nc(-c2ccccn2)n1 [GSK-J4]
Toxicity as measured by cell count (number of cells, DAPI staining) (HeLa cells [3]): only minor toxicity at the highest concentrations used
Effect on H3K4me3 mark in KDM5B IF assay, in words (KDM5B [4]): increase of the H3K4me3 mark

CCOC(=O)CCNc1cc(N2CCc3ccccc3CC2)nc(-c2cccnc2)n1 [GSK-J5]
necrotic cells (HeLa cells [1]; HeLa cells, 50 µM): about 60%
Toxicity as measured by cell count (number of cells, DAPI staining) (HeLa cells [2]): only minor toxicity at the highest concentrations used

O=C(O)c1ccc(O)c2ncccc12 [IOX1]
Cell death in triple staining (healthy, apoptotic, necrotic), in words (HeLa cells [1]; [7]): little to no cell toxicity
IC50 (KDM5B [5]): 20.6 ± 9 µM
Toxicity as measured by cell count (number of cells, DAPI staining) (HeLa cells [2]): only observed cell toxicity at high concentrations
EC50 (KDM5B [4]): 62 µM
Effect on H3K4me3 mark in KDM5B IF assay, in words (KDM5B [4]): dose-dependent increase of H3K4me3

Clc1ccc(N/N=C(/c2ccccc2)c2ccccn2)nc1 [JIB-04 Z]
IC50 (KDM3A): > 10 µM
IC50 (KDM5B [6]; AlphaScreen, IC50 ± SD (number of replicates), read-out: KDM5B IC50, in vitro): 7.01 µM
IC50 (KDM5C): > 10 µM
EC50 (KDM5B [4]): > 100 µM

CC(=O)O[C@H]1C(=O)[C@@]2(C)[C@H]([C@H](OC(=O)c3ccccc3)[C@]3(O)C[C@H](OC(=O)[C@H](O)[C@@H](NC(=O)c4ccccc4)c4ccccc4)C(C)=C1C3(C)C)[C@]1(OC(C)=O)CO[C@@H]1C[C@@H]2O [Paclitaxel, paclitaxel]
IC50 (KDM4C): > 100 µM
IC50 (KDM5B [6]; [8]): > 100 µM
IC50 (KDM6B): > 100 µM
Cell death in triple staining (healthy, apoptotic, necrotic), in words (HeLa cells [1]): predominant apoptotic staining
Effect on H3K4me3 levels, in words (H3K4me3 mark): dose-dependent increase of H3K4me3
Effect on H3K27me3 mark, in words (H3K27me3 mark): profound effect
Effect on H3K9me2 levels, in words (H3K9me2 mark): not affected
Effect on H3K36me2 levels, in words (H3K36me2 mark): only marginally affected
Toxicity as measured by cell count (number of cells, DAPI staining) (HeLa cells [2]): induced cell death

CN[C@@H]1C[C@H]2O[C@@](C)([C@@H]1OC)n1c3ccccc3c3c4c(c5c6ccccc6n2c5c31)C(=O)NC4 [Staurosporine, staurosporine]
IC50 (KDM4C): > 100 µM
IC50 (KDM5B [6]; [8]): > 100 µM
IC50 (KDM6B): > 100 µM
Cell death in triple staining (healthy, apoptotic, necrotic), in words (HeLa cells [1]; [7]): predominant apoptotic staining
